In test [1] the target is T1, M receptors for serotonin (Oryctolagus cuniculus, UniProt A0A5F9C9J3).
T1 construct: isolated rabbit vagus nerve; from tissue; host or cells: isolated rabbit vagus nerve
T1 sequence (A0A5F9C9J3 1-494): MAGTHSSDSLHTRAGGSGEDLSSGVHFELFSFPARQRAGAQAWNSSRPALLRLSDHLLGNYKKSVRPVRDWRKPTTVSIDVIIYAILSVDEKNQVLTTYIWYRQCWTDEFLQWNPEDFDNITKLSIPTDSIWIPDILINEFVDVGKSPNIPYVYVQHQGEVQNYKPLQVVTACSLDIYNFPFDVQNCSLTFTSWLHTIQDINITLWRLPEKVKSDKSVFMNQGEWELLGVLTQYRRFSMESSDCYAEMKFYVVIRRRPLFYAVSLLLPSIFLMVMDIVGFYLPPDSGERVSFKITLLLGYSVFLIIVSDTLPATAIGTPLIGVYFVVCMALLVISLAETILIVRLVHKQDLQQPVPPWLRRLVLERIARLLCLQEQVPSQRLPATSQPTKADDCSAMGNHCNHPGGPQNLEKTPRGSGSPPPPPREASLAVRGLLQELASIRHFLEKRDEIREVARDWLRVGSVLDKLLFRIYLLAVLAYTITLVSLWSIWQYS
The conditions noted are these: isolated rabbit vagus nerve; known serotonin D receptor antagonists; cited from earlier work.

For another test, the system named is serotonin M receptor. The conditions noted are these: human volunteers, forearm blister; serotonin D receptor antagonists; cited from earlier work.
Test [2] concerns the target T1, M receptors for serotonin. Put plainly: isolated rabbit vagus nerve test (serotonin reduction of C fibre compound action potential). The conditions noted are these: antagonism of serotonin on C fibre action potential, read-out: pA2 in the vagus nerve test (converted). The text has this: For example, in one test the action of the compounds in inhibiting the action of serotonin in reducing the amplitude of the compound action potential from the isolated rabbit vagus nerve was observed according to the principles of Riccioppo Neto, European Journal of Pharmacology (1978) 49 351-356, under conditions permitting differentation between action potentials generated in myelinatd nerve fibres (A fibres) and those generated in small non-myelinated fibres (C fibres) as described by B. Oakley and R. Schater, Experimental Neurobiology, A Laboratory Manual, University of Michigan Press, 1978, p.85 to 96. Serotonin itself exerts its effect selectively on the C-fibres progressively with dosage. This action of serotonin is not blocked by the known serotonin antagonists, metitepine, methysergide, BOL - 148, which have been said to block D receptors for serotonin, but not M receptors (see Gaddam and Picarlli, Brit.J.Pharmacol. (1957), 12, 323-328). It therefore appears that serotonin reduces the amplitude of the action potential carried by the C fibres through an effect mediated by M receptors for serotonin which are located on these nerve fibres.
The test may be effected by establishing a dose response curve for serotonin (10^-7 -5×10^-6 M) after setting up the nerve. […]

A further test has as its system migraine attack. The conditions noted are these: slow i.v. injection of 10 mg; reported by J. B. Hughes 1977; cited from earlier work.

`CCN(CC)C(=O)[C@@H]1C=C2c3cccc4[nH]c(Br)c(c34)C[C@H]2N(C)C1` [BOL - 148]: the “block of the action of serotonin on the C fibre action potential” value (“block of the action of serotonin” for short) in test [1] was “not blocked”. In addition, in the test with serotonin M receptor, the “inhibition of the algesic action of serotonin on the blister base” value is “not inhibited”.

As for `CN1C[C@H]2CCC[C@@H](C1)[C@@H]2OC(=O)c1c[nH]c2ccccc12` [Example 2], in test [2], the Kb is 6.31 nM.

As to `CCN(CC)C(=O)[C@@H]1C=C2c3cccc4[nH]cc(c34)C[C@H]2N(C)C1` [lysergic acid diethylamide], in the test on serotonin M receptor, the “inhibition of the algesic action of serotonin on the blister base” value was “not inhibited”.

Regarding `CC[C@@H](CO)NC(=O)[C@@H]1C=C2c3cccc4c3c(cn4C)C[C@H]2N(C)C1` [methysergide], the “block of the action of serotonin” value in test [1] is “not blocked”.

`CSc1ccc2c(c1)C(N1CCN(C)CC1)Cc1ccccc1S2` (centres unmarked) [metitepine]: in test [1], the “block of the action of serotonin” value is listed as “not blocked”.

Turning to `CCN(CC)CCNC(=O)c1cc(Cl)c(N)cc1OC` [metoclopramide, Metoclopramide], the Kb in test [2] was 50.1 nM. Besides, in the test with migraine attack, the “effect on a migraine attack” value is “immediate effect”.
